The subject of assay [1] is Coriolus versicolor (Fungus D). Kind of assay: Wood-preservative Activity (Antidecay). The note with it: paper disc, 30 μl of 300 ppm acetone solution, 25° C., 5 days.
Experimental: (§1) A fungal disc of about 4 mm diameter was inoculated on an agar medium (2% by weight malt extract, 1% glucose, 0.3% peptone and 2% agar) in a petri dish of diameter 9 cm, by placing the disc on the center of the medium. Paper disc specimens were prepared by impregnating 30 μl of an acetone solution containing 300 ppm of the test compound into the disc (diameter 8 mm, thickness 0.7 mm) and then subjecting it to dry sterilization. The disc specimens were placed in a circle at about 1 cm distance from the fringe of the grown fungus, three days after the inoculation. The specimens were then maintained at 25° C. for 5 days, after which the antifungal activity was determined by visual observation of infection of the specimens by the fungus.
(§2) The procedure described in Experiment 7 was repeated, except that the fungi tested were Coriolus versicolor (Fungus D) and Tyromyces palustris (Fungus E), which are prescribed in JIS A-9201.
Assay [2] concerns Tyromyces palustris (Fungus E). The experiment in a line: Wood-preservative Activity (Antidecay). The note with it: paper disc, 30 μl of 300 ppm acetone solution, 25° C., 5 days.
Experimental: as §1, §2
Assay [3] has as its system Gliocladium virens (Fungus B). Kind of assay: Antifungal Activity (paper disc on agar). The settings on record: 30 μl of 300 ppm acetone solution, 25° C., 5 days.
Experimental: (§3) A fungal disc of about 4 mm diameter was inoculated on an agar medium (2% by weight malt extract, 1% glucose, 0.3% peptone and 2% agar) in a petri dish of diameter 9 cm, by placing the disc on the center of the medium. Paper disc specimens were prepared by impregnating 30 μl of an acetone solution containing 300 ppm of the test compound into the disc (diameter 8 mm, thickness 0.7 mm) and then subjecting it to dry sterilization. The disc specimens were placed in a circle at about 1 cm distance from the fringe of the grown fungus, three days after the inoculation. The specimens were then maintained at 25° C. for 5 days, after which the antifungal activity was determined by visual observation of infection of the specimens by the fungus. The fungi tested were:
Gliocladium virens (Fungus B), and
Assay [4] concerns Aspergillus niger (Fungus A). The experiment in a line: Antifungal Activity (paper disc on agar). The settings on record: 30 μl of 300 ppm acetone solution, 25° C., 5 days.
Experimental: as §3
Aspergillus niger (Fungus A),
Assay [5] deals with Fusarium moliniforme (Fungus C). The experiment in a line: Antifungal Activity (paper disc on agar). The settings on record: 30 μl of 300 ppm acetone solution, 25° C., 5 days.
Experimental: as §3
The antifungal activity is indicated by the following ratings:

In the case of `C[Si](C)(C)CC(O)(Cn1cncn1)c1ccc(Cl)cc1Cl` (stereo not shown) [Compound 1-11, 2-(2,4-Dichlorophenyl)-1-(1H-1,2,4-triazol-1-yl)-3-trimethysilyl-2-propanol], the “wood-preservative (antidecay) activity, Fungus D” value (“wood-preservative … Fungus D” for short) in assay [1] is reported as “+”. Also, the “wood-preservative (antidecay) activity, Fungus E” value (shortened to “wood-preservative … Fungus E”) in assay [2] is “+”. In addition, in assay [3], the “antifungal activity, Fungus B” value was “+”. For the same molecule, the “antifungal activity, Fungus A” value in assay [4] was “+”. The “antifungal activity, Fungus C” value in assay [5] was “+”.
For the molecule `C[Si](C)(C)CC(O)(Cn1cncn1)c1ccccc1` (stereo not shown) [Compound 1-1, 2-Phenyl-1-(1H-1,2,4-triazol-1-yl)-3-trimethylsilyl-2-propanol], in assay [1], the “wood-preservative … Fungus D” value was “+”. Moreover, the “wood-preservative … Fungus E” value in assay [2] was “+”. Moreover, in assay [3], the “antifungal activity, Fungus B” value is “-”. For the same molecule, the “antifungal activity, Fungus A” value in assay [4] was “+”. The “antifungal activity, Fungus C” value in assay [5] is listed as “+”.
For `C[Si](C)(C)CC(O)(Cn1cncn1)c1ccc(Br)cc1` (stereo not shown) [Compound 1-4, 2-(4-Bromophenyl)-1-(1H-1,2,4-triazol-1-yl)-3-trimethylsilyl-2-propanol], in assay [1], the “wood-preservative … Fungus D” value is reported as “+”. Further, in assay [2], the “wood-preservative … Fungus E” value was “+”. Besides, the “antifungal activity, Fungus B” value in assay [3] is listed as “+”. In addition, the “antifungal activity, Fungus A” value in assay [4] was “+”. For the same molecule, the “antifungal activity, Fungus C” value in assay [5] was “+”.
With `C[Si](C)(C)CC(O)(Cn1cncn1)c1ccc(F)cc1` (stereo not shown) [Compound 1-78, Adduct of 2-(4-fluorophenyl)-1-(1H1,2,4-triazol-1-yl)-3-trimethylsilyl-2-propanol with saccharin], in assay [1], the “wood-preservative … Fungus D” value is given as “+”. For the same molecule, in assay [2], the “wood-preservative … Fungus E” value is “+”. Further, the “antifungal activity, Fungus B” value in assay [3] is reported as “+”. Further, the “antifungal activity, Fungus A” value in assay [4] is recorded as “-”. For the same molecule, the “antifungal activity, Fungus C” value in assay [5] is “+”.
Take `CC[Si](C)(C)CC(O)(Cn1cncn1)c1ccc(F)cc1` (stereo not shown) [Compound 1-70, 3-Dimethylethylsilyl-2-(4-fluorophenyl)-1-(1H-1,2,4-triazol-1-yl)-2-propanol]: the “wood-preservative … Fungus D” value in assay [1] is “+”. In addition, in assay [2], the “wood-preservative … Fungus E” value was “+”. The “antifungal activity, Fungus B” value in assay [3] is listed as “+”. Besides, the “antifungal activity, Fungus A” value in assay [4] is on record as “-”. In assay [5], the “antifungal activity, Fungus C” value is “+”.
Regarding `C[Si](C)(C)CC(O)(Cn1cncn1)c1ccc(Cl)c(Cl)c1` (stereo not shown) [Compound 1-29, 2-(3,4-Dichlorophenyl)-1-(1H-1,2,4-triazol-1-yl)-3-trimethylsilyl-2-propanol], the “wood-preservative … Fungus D” value in assay [1] is given as “-”. Further, the “wood-preservative … Fungus E” value in assay [2] is given as “-”. Besides, the “antifungal activity, Fungus B” value in assay [3] is reported as “-”. In addition, the “antifungal activity, Fungus A” value in assay [4] was “-”. The “antifungal activity, Fungus C” value in assay [5] is on record as “+”.
`C[Si](C)(CC(O)(Cn1cncn1)c1ccc(F)cc1)c1ccc(Cl)cc1` (stereo not shown) [Compound 1-69, 3-[(4-Chlorophenyl)dimethylsilyl]-2-(4-fluorophenyl)-1-(1H-1,2,4-triazol-1-yl)-2-propanol]: the “wood-preservative … Fungus D” value in assay [1] is given as “+”. The “wood-preservative … Fungus E” value in assay [2] was “-”. Further, the “antifungal activity, Fungus B” value in assay [3] is recorded as “-”. Moreover, the “antifungal activity, Fungus A” value in assay [4] was “-”. Further, the “antifungal activity, Fungus C” value in assay [5] is given as “+”.
On to `Cc1ccc(C(O)(Cn2cncn2)C[Si](C)(C)C)cc1` (stereo not shown) [Compound 1-5, 2-(4-Methylphenyl)-1-(1H-1,2,4-triazol-1-yl)-3-trimethylsilyl-2-propanol], for which, in assay [1], the “wood-preservative … Fungus D” value was “+”. In addition, the “wood-preservative … Fungus E” value in assay [2] is reported as “+”. Moreover, in assay [3], the “antifungal activity, Fungus B” value was “+”. In addition, in assay [4], the “antifungal activity, Fungus A” value is on record as “+”. Besides, the “antifungal activity, Fungus C” value in assay [5] is reported as “+”.
Turning to `C[Si](C)(C)CC(O)(Cn1cncn1)c1ccc(Cl)cc1F` (stereo not shown) [Compound 1-14, 2-(4-Chloro-2-fluorophenyl)-1-(1H-1,2,4-triazol-1-yl)-3-trimethylsilyl-2-propanol], the “wood-preservative … Fungus D” value in assay [1] is listed as “+”. Further, the “wood-preservative … Fungus E” value in assay [2] is reported as “+”. Also, the “antifungal activity, Fungus B” value in assay [3] is “+”. Also, the “antifungal activity, Fungus A” value in assay [4] was “+”. Besides, the “antifungal activity, Fungus C” value in assay [5] is listed as “+”.
With `C[Si](C)(C)CC(O)(Cn1cncn1)c1ccc(Cl)c(Cl)c1Cl` (stereo not shown) [Compound 1-64, 1-(1H-1,2,4-Triazol-1-yl)-2-(2,3,4-trichlorophenyl)-3-trimethylsilyl-2-propanol], the “wood-preservative … Fungus D” value in assay [1] is listed as “-”. For the same molecule, in assay [2], the “wood-preservative … Fungus E” value is “+”. Also, the “antifungal activity, Fungus B” value in assay [3] is recorded as “-”. Further, the “antifungal activity, Fungus A” value in assay [4] is on record as “-”. In addition, in assay [5], the “antifungal activity, Fungus C” value is on record as “-”.
`C[Si](C)(C)CC(O)(Cn1cncn1)c1cc(Cl)c(Cl)cc1Cl` (stereo not shown) [Compound 1-65, 1-(1H-1,2,4-Triazol-1-yl)-2-(2,4,5-trichlorophenyl)-3-trimethylsilyl-2-propanol]: the “wood-preservative … Fungus D” value in assay [1] was “-”. In addition, the “wood-preservative … Fungus E” value in assay [2] is “-”. In assay [3], the “antifungal activity, Fungus B” value is given as “-”. Further, in assay [4], the “antifungal activity, Fungus A” value is “-”. The “antifungal activity, Fungus C” value in assay [5] was “+”.
As to `C[Si](C)(C)CC(O)(Cn1cncn1)c1ccc(C(F)(F)F)cc1` (stereo not shown) [Compound 1-6, 1-(1H-1,2,4-Triazol-1-yl)-2-(4-trifluoromethylphenyl)-3-trimethylsilyl-2-propanol], the “wood-preservative … Fungus D” value in assay [1] was “+”. In addition, the “wood-preservative … Fungus E” value in assay [2] is “+”. Also, in assay [3], the “antifungal activity, Fungus B” value is “-”. Also, the “antifungal activity, Fungus A” value in assay [4] is given as “+”. Also, the “antifungal activity, Fungus C” value in assay [5] is on record as “+”.
`C[Si](C)(C)CC(O)(Cn1cncn1)c1ccc(Cl)cc1` (stereo not shown) [Compound 1-83, Adduct of 2-(4-chlorophenyl)-1-(1H-1,2,4-triazol-1-yl)-3-trimethylsilyl-2-propanol with saccharin]: the “wood-preservative … Fungus D” value in assay [1] is recorded as “+”. The “wood-preservative … Fungus E” value in assay [2] is “+”. For the same molecule, in assay [3], the “antifungal activity, Fungus B” value is “+”. The “antifungal activity, Fungus A” value in assay [4] is on record as “-”. The “antifungal activity, Fungus C” value in assay [5] is “+”.
As for `C[Si](C)(C)CC(O)(Cn1ccnc1)c1ccc(Cl)cc1Cl` (stereo not shown) [Compound 1-49, 2-(2,4-Dichlorophenyl)-1-(1H-1,3-imidazol-1-yl)-3-trimethylsilyl-2-propanol], the “wood-preservative … Fungus D” value in assay [1] was “+”. Further, the “wood-preservative … Fungus E” value in assay [2] is on record as “-”. In assay [3], the “antifungal activity, Fungus B” value is on record as “-”. Also, in assay [4], the “antifungal activity, Fungus A” value is listed as “-”. Moreover, in assay [5], the “antifungal activity, Fungus C” value is “-”.
In the case of `C[Si](C)(C)CC(O)(Cn1cncn1)c1ccccc1F` (stereo not shown) [Compound 1-17, 2-(2-Fluorophenyl)-1-(1H-1,2,4-triazol-1-yl)-3-trimethylsilyl-2-propanol], the “wood-preservative … Fungus D” value in assay [1] is “+”. Also, the “wood-preservative … Fungus E” value in assay [2] was “+”. In addition, the “antifungal activity, Fungus B” value in assay [3] is listed as “+”. The “antifungal activity, Fungus A” value in assay [4] is given as “+”. Besides, the “antifungal activity, Fungus C” value in assay [5] was “+”.
With `C[Si](C)(C)CC(O)(Cn1cncn1)c1ccccc1Cl` (stereo not shown) [Compound 1-16, 2-(2-Chlorophenyl)-1-(1H-1,2,4-triazol-1-yl)-3-trimethylsilyl-2-propanol], the “wood-preservative … Fungus D” value in assay [1] is “+”. For the same molecule, the “wood-preservative … Fungus E” value in assay [2] is “+”. Also, the “antifungal activity, Fungus B” value in assay [3] is reported as “+”. Also, in assay [4], the “antifungal activity, Fungus A” value is given as “+”. Further, the “antifungal activity, Fungus C” value in assay [5] is given as “+”.
For the molecule `C[Si](C)(C)CC(O)(Cn1ccnc1)c1ccc(F)cc1F` (stereo not shown) [Compound 1-50, 2-(2,4-Difluorophenyl)-1-(1H-1,3-imidazol-1-yl)-3-trimethylsilyl-2-propanol], the “wood-preservative … Fungus D” value in assay [1] is given as “+”. Further, in assay [2], the “wood-preservative … Fungus E” value is on record as “-”. In assay [3], the “antifungal activity, Fungus B” value was “-”. Besides, the “antifungal activity, Fungus A” value in assay [4] was “-”. In addition, the “antifungal activity, Fungus C” value in assay [5] is on record as “+”.

For the origin of these results see patent US5306712A, “Fungicidal silicon-containing compounds and their agrochemical and medicinal uses” (Sanyo Company, Limited, priority 1991, dated 1994).
